Data taken from EP3840748B1, “SUBSTITUTED IMIDAZOLES FOR THE INHIBITION OF TGF-BETA AND METHODS OF TREATMENT” (Clavius Pharmaceuticals, LLC, priority 2018, dated 2020).
Counter-ions that a name gives are not always drawn.

Key:
[1] = test system: TGF-beta 1 stimulated SBE-bla HEK 293T; assay: GeneBLAzer beta-lactamase (bla) reporter, TGF-beta 1 stimulated SBE-bla HEK 293T cell-based assay (ThermoFisher SelectScreen); settings: Homo sapiens; SBE-bla HEK 293T cells; 30 minutes pre-incubation with inhibitor; TGF-beta 1 0.03 nM, 5 hours; inhibitor 10,000nM to 0.316nM; read-out: Cells (SBE_HEK293T) IC50
Description: (§1) Table 2, below, describes the results of assays carried out on some compounds provided by the present disclosure. Exemplified compounds are confirmed to inhibit ALK5 activity in enzyme and cellular assays in the following assay systems conducted by ThermoFisher in Madison, WI according to their commercially available protocols.
ThermoFisher SelectScreen™ Cell-based Pathway Profiling Service GeneBLAzer Beta-lactamase (bla) Reporter Technology - TGF-beta 1 stimulated SBE-bla HEK 293T Cell-based Assay
SBE-bla HEK 293T cells are thawed and re-suspended in Assay Media (OPTI-MEM, 0.5% dialyzed FBS, 0.1 mM NEAA, 1 mM Sodium Pyruvate, 100 U/mL/100 µg/mL Pen/Strep) to a concentration of 625,000 cells/mL. 32 µL of cell suspension (20,000 cells) is added to each well of a 384-well Poly-D-Lysine assay plate. Cells in Assay Media are incubated for 16-24 hours in the plate at 37°C/5% CO2 in a humidified incubator. 4 µL of a 10X serial dilution of ALK5 inhibitors (10x = 100,000-3.16 nM) is added to appropriate wells of the plate and pre-incubated at 37°C/5% CO2 in a humidified incubator with cells for 30 minutes. Final concentration of inhibitor ranged from 10,000nM to 0.316nM. 4 µL of 10X TGF-beta 1 (final concentration of 0.03 nM) is added to wells containing the inhibitors. The plate is incubated for 5 hours at 37°C/5% CO2 in a humidified incubator. 8 µL of 1 µM Substrate Loading Solution is added to each well and the plate is incubated for 2 hours at room temperature before being read on a fluorescence plate reader. Percent inhibition is determined compared to DMSO only control (maximal TGF-beta 1 stimulation) and sigmoidal dose response curve fit yielded IC50 values as indicated in Table 2. TABLE 2: Biological activity assay results

TGFBR1 (ALK5) = target: T1, TGFBR1 (ALK5) (Homo sapiens, UniProt P36897); assay: LanthaScreen Eu Kinase Binding Assay TGFBR1 (ALK5) (ThermoFisher SelectScreen); settings: ALK5 5 nM, Tracer #178 5 nM, Eu-anti-GST antibody 2 nM, 1 hour at room temperature, 1% DMSO; read-out: TβRI (ALK5) Binding IC50
T1 sequence (P36897 34-503): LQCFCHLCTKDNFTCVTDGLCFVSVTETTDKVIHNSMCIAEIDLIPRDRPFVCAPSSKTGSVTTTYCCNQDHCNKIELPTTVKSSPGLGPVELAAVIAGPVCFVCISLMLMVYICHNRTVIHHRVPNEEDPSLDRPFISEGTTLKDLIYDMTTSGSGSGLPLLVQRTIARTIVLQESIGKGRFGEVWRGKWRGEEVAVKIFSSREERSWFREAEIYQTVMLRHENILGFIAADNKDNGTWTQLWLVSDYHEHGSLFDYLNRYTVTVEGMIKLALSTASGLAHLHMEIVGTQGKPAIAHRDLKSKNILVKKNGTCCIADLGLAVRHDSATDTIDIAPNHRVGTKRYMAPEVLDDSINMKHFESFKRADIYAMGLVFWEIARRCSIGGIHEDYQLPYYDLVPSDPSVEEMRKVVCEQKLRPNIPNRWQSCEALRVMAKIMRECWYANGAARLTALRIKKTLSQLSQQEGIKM
Description: as §1
ThermoFisher SelectScreen™ Biochemical Kinase Profiling Service, LanthaScreen™Eu Kinase Binding Assay TGFBR1 (ALK5)
Exemplified compounds are screened in 1% DMSO (final concentration) by 3-fold serial dilutions from 10,000 nM to 0.316 nM or at single concentrations of 10,000, 1000 and 100 nM according to the following protocol. To low volume, white 384-well plates (Greiner Cat#784207) add 160 nL 100x compound in 100% DMSO, 3.84 uL kinase buffer (50 mM HEPES, pH 7.5, 0.01% BRIJ-35, 10 mM MgCl2, 1 mM EGTA), 8 uL 2x kinase/antibody mixture in kinase buffer (final ALK5 concentration of 5 nM; final Eu-anti-GST antibody concentration of 2 nM), 4 uL 4x Tracer #178 in kinase buffer (final concentration of 5 nM). Gently shake the plates for 30 seconds and incubate at room temperature for 1 hour before reading fluorescence on a plate reader. Percent inhibition is determined compared to DMSO only control (maximal ALK5 tracer binding) and sigmoidal dose response curve fit yielded IC50 values as indicated in Table 2.

SMILES | IC50 [1] [µM] | IC50 (TGFBR1 (ALK5)) [µM]
NC(=O)c1ncnc2ccc(-c3c(-c4ccn(C5CC5)n4)nc4sccn34)cc12 [Compound 96, 6-(6-(1-Cyclopropyl-1H-pyrazol-3-yl)imidazo[2,1-b]thiazol-5-yl)quinazoline-4-carboxamide] | 0.0249 | 0.0017
CC(C)n1ccc(-c2nc3sccn3c2-c2ccc3nc[nH]c(=O)c3c2)n1 [Compound 97, 6-(6-(1-Isopropyl-1H-pyrazol-3-yl)imidazo[2,1-b]thiazol-5-yl)quinazolin-4(3H)-one hydrochloride] | 0.528 | 0.0125
